Measured values as given in PubChem BioAssay AID248 (DTP/NCI, 2004).
Values joined by “and” are separate entries in the source; they are usually repeats but may differ in a detail not shown here. Identical values can stand only once. Toxic doses and inconclusive results are not listed.

Tested on: L1210 leukemia ip in BDF1 mice, survival T/C
Assay: NCI In Vivo Anticancer Drug Screen. Data for tumor model L1210 Leukemia (intraperitoneal) in B6D2F1 (BDF1) mice
Conditions: endpoint: mean survival time, higher = longer survival
Method in brief: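 Ratio derived from survival: compound-dosed mice over vehicle-dosed mice, all bearing a transplantable tumor.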

[1] = dose: 100.0 mg/kg/injection, schedule: Q04DX003 (ip), vehicle: saline with Tween-80
[2] = dose: 200.0 mg/kg/injection, schedule: Q04DX003 (ip), vehicle: saline with Tween-80
[3] = dose: 400.0 mg/kg/injection, schedule: Q04DX003 (ip), vehicle: saline with Tween-80
[4] = dose: 100.0 mg/kg/injection, schedule: Q01DX001 (ip), vehicle: carboxymethylcellulose (CMC)
[5] = dose: 200.0 mg/kg/injection, schedule: Q01DX001 (ip), vehicle: carboxymethylcellulose (CMC)
[6] = dose: 400.0 mg/kg/injection, schedule: Q01DX001 (ip), vehicle: carboxymethylcellulose (CMC)
[7] = dose: 50.0 mg/kg/injection, schedule: Q04DX002 (ip), vehicle: Klucel (hydroxypropylcellulose) (HPC)
[8] = dose: 100.0 mg/kg/injection, schedule: Q04DX002 (ip), vehicle: Klucel (hydroxypropylcellulose) (HPC)
[9] = dose: 200.0 mg/kg/injection, schedule: Q04DX002 (ip), vehicle: Klucel (hydroxypropylcellulose) (HPC)
[10] = dose: 400.0 mg/kg/injection, schedule: Q04DX002 (ip), vehicle: Klucel (hydroxypropylcellulose) (HPC)
[11] = dose: 400.0 mg/kg/injection, schedule: Q01DX001 (ip), vehicle: saline
[12] = dose: 75.0 mg/kg/injection, schedule: Q01DX001 (ip), vehicle: other
[13] = dose: 150.0 mg/kg/injection, schedule: Q01DX001 (ip), vehicle: other
[14] = dose: 300.0 mg/kg/injection, schedule: Q01DX001 (ip), vehicle: other
[15] = dose: 100.0 mg/kg/injection, schedule: Q01DX009 (ip), vehicle: Klucel (hydroxypropylcellulose) (HPC)
[16] = dose: 100.0 mg/kg/injection, schedule: Q01DX009 (ip), vehicle: saline
[17] = dose: 200.0 mg/kg/injection, schedule: Q01DX009 (ip), vehicle: Klucel (hydroxypropylcellulose) (HPC)
[18] = dose: 200.0 mg/kg/injection, schedule: Q01DX009 (ip), vehicle: saline
[19] = dose: 400.0 mg/kg/injection, schedule: Q01DX009 (ip), vehicle: saline
[20] = dose: 100.0 mg/kg/injection, schedule: Q01DX001 (ip), vehicle: other
[21] = dose: 200.0 mg/kg/injection, schedule: Q01DX001 (ip), vehicle: other
[22] = dose: 400.0 mg/kg/injection, schedule: Q01DX001 (ip), vehicle: other
[23] = dose: 50.0 mg/kg/injection, schedule: Q01DX001 (ip), vehicle: carboxymethylcellulose (CMC)
[24] = dose: 50.0 mg/kg/injection, schedule: Q01DX009 (ip), vehicle: saline
[25] = dose: 100.0 mg/kg/injection, schedule: Q04DX003 (ip), vehicle: saline
[26] = dose: 200.0 mg/kg/injection, schedule: Q04DX003 (ip), vehicle: saline
[27] = dose: 400.0 mg/kg/injection, schedule: Q04DX003 (ip), vehicle: saline

CC(=O)c1ccc(SC(=O)N(C)C)cc1
T/C [1]: 98 % of control
T/C [2]: 93 % of control
T/C [3]: 97 % of control

CC(C)CC(B1OCCO1)(C1CCCCC1)C1CCCCC1
T/C (dose: 100.0 mg/kg/injection, schedule: Q01DX009 (ip), vehicle: saline with Tween-80): 107 % of control
T/C (dose: 100.0 mg/kg/injection, schedule: Q04DX003 (ip), vehicle: other): 105 % of control
T/C (dose: 200.0 mg/kg/injection, schedule: Q01DX009 (ip), vehicle: saline with Tween-80): 93 % of control
T/C (dose: 200.0 mg/kg/injection, schedule: Q04DX003 (ip), vehicle: other): 104 % of control
T/C (dose: 400.0 mg/kg/injection, schedule: Q04DX003 (ip), vehicle: other): 110 % of control

NN1C(=O)Cc2ccccc2C1=O
T/C [4]: 102 % of control
T/C [1]: 101 % of control
T/C [5]: 93 % of control
T/C [2]: 101 % of control
T/C [6]: 96 % of control
T/C [3]: 116 % of control

COc1ccc(/C=C/c2nccc3ccccc23)cc1OC
T/C [7]: 105 % of control
T/C [8]: 102 % of control
T/C [9]: 96 % of control and 108 % of control
T/C [10]: 89 % of control

O=C1NC(=O)C(c2ccsc2)(c2cccs2)N1 (stereo unspecified)
T/C [4]: 97 % of control
T/C [5]: 89 % of control
T/C [6]: 100 % of control

COc1ccc(C(=O)C(C)C(C)OC(=O)c2ccccc2C(=O)O)cc1 (stereo unspecified)
T/C (dose: 100.0 mg/kg/injection, schedule: Q01DX001 (ip), vehicle: saline): 96 % of control
T/C (dose: 200.0 mg/kg/injection, schedule: Q01DX001 (ip), vehicle: saline): 98 % of control
T/C [11]: 93 % of control

CCOC(=O)c1ccc(NCC(=O)CNc2nc(N)nc(N)c2[N+](=O)[O-])cc1
T/C [12]: 95 % of control
T/C [13]: 90 % of control
T/C [14]: 87 % of control

NC(=O)C(N)CSCc1ccccc1 (stereo unspecified)
T/C (dose: 50.0 mg/kg/injection, schedule: Q01DX009 (ip), vehicle: Klucel (hydroxypropylcellulose) (HPC)): 95 % of control
T/C [15]: 95 % of control
T/C [16]: 89 % of control
T/C [17]: 100 % of control
T/C [18]: 91 % of control
T/C [19]: 91 % of control

CC(=O)Nc1ccccc1C(C#N)Cc1ccccc1 (stereo unspecified)
T/C [12]: 96 % of control
T/C [13]: 101 % of control
T/C [14]: 101 % of control

CCCCCNC(=O)CCC(=O)NCCCCC
T/C [20]: 98 % of control
T/C [21]: 98 % of control
T/C [22]: 98 % of control

FC(F)(F)c1cc(CN(CCCl)CCCl)cc(C(F)(F)F)c1
T/C (dose: 2.4 mg/kg/injection, schedule: Q01DX009 (ip), vehicle: saline): 97 % of control
T/C (dose: 3.6 mg/kg/injection, schedule: Q01DX009 (ip), vehicle: saline): 98 % of control
T/C (dose: 8.2 mg/kg/injection, schedule: Q01DX009 (ip), vehicle: saline): 108 % of control
T/C (dose: 42.0 mg/kg/injection, schedule: Q01DX009 (ip), vehicle: other): 97 % of control
T/C (dose: 42.0 mg/kg/injection, schedule: Q01DX015 (ip), vehicle: carboxymethylcellulose (CMC)): 104 % of control
T/C [23]: 111 % of control
T/C (dose: 72.0 mg/kg/injection, schedule: Q01DX009 (ip), vehicle: other): 98 % of control
T/C (dose: 72.0 mg/kg/injection, schedule: Q01DX015 (ip), vehicle: carboxymethylcellulose (CMC)): 116 % of control
T/C [4]: 108 % of control
T/C (dose: 120.0 mg/kg/injection, schedule: Q01DX015 (ip), vehicle: carboxymethylcellulose (CMC)): 116 % of control
T/C (dose: 176.0 mg/kg/injection, schedule: Q01DX001 (ip), vehicle: other): 100 % of control
T/C (dose: 178.0 mg/kg/injection, schedule: Q01DX001 (ip), vehicle: saline): 103 % of control
T/C (dose: 178.0 mg/kg/injection, schedule: Q04DX003 (ip), vehicle: other): 86 % of control
T/C [5]: 111 % of control
T/C (dose: 264.0 mg/kg/injection, schedule: Q01DX001 (ip), vehicle: other): 107 % of control
T/C (dose: 267.0 mg/kg/injection, schedule: Q01DX001 (ip), vehicle: saline): 116 % of control
T/C [22]: 105 % of control
T/C [11]: 121 % of control
T/C (dose: 600.0 mg/kg/injection, schedule: Q01DX001 (ip), vehicle: saline): 152 % of control

O=P(CCCl)(CCCl)CCCl
T/C [24]: 87 % of control
T/C (dose: 50.0 mg/kg/injection, schedule: Q04DX003 (ip), vehicle: saline): 98 % of control
T/C [16]: 87 % of control
T/C [25]: 106 % of control
T/C [18]: 90 % of control
T/C [26]: 101 % of control
T/C [27]: 101 % of control

O=C(Nc1cccc(C(F)(F)F)c1)Nc1ccc(Cl)cc1Cl
T/C (dose: 100.0 mg/kg/injection, schedule: Q01DX001 (ip), vehicle: Klucel (hydroxypropylcellulose) (HPC)): 96 % of control
T/C [15]: 95 % of control and 108 % of control
T/C [8]: 95 % of control and 100 % of control
T/C (dose: 100.0 mg/kg/injection, schedule: Q04DX003 (ip), vehicle: Klucel (hydroxypropylcellulose) (HPC)): 86 % of control
T/C (dose: 200.0 mg/kg/injection, schedule: Q01DX001 (ip), vehicle: Klucel (hydroxypropylcellulose) (HPC)): 91 % of control
T/C [17]: 94 % of control and 104 % of control
T/C [9]: 100 % of control and 88 % of control
T/C (dose: 200.0 mg/kg/injection, schedule: Q04DX003 (ip), vehicle: Klucel (hydroxypropylcellulose) (HPC)): 94 % of control
T/C (dose: 400.0 mg/kg/injection, schedule: Q01DX001 (ip), vehicle: Klucel (hydroxypropylcellulose) (HPC)): 93 % of control
T/C (dose: 400.0 mg/kg/injection, schedule: Q01DX009 (ip), vehicle: Klucel (hydroxypropylcellulose) (HPC)): 95 % of control and 97 % of control
T/C [10]: 98 % of control and 104 % of control
T/C (dose: 400.0 mg/kg/injection, schedule: Q04DX003 (ip), vehicle: Klucel (hydroxypropylcellulose) (HPC)): 92 % of control

O=C(O)CNCc1cccc(Cl)c1
T/C [24]: 94 % of control
T/C [16]: 101 % of control
T/C [25]: 95 % of control
T/C [26]: 93 % of control
T/C [19]: 101 % of control
T/C [27]: 102 % of control

O=C(Nc1ccc(C2=NCC(O)CN2)cc1)c1ccc(C(=O)Nc2ccc(C3=NCC(O)CN3)cc2)c(Cl)c1 (stereo unspecified)
T/C (dose: 12.0 micrograms/kg/injection, schedule: Q01DX015 (ip), vehicle: water): 96 % of control
T/C (dose: 25.0 micrograms/kg/injection, schedule: Q01DX015 (ip), vehicle: water): 114 % of control
T/C (dose: 50.0 micrograms/kg/injection, schedule: Q01DX015 (ip), vehicle: water): 96 % of control
T/C (dose: 75.0 micrograms/kg/injection, schedule: Q01DX015 (ip), vehicle: water): 102 % of control

COc1ccc(/C=N\NC(=O)N/N=C/c2ccc(OC)c(Br)c2)cc1Br
T/C [7]: 106 % of control
T/C [8]: 98 % of control and 103 % of control
T/C [9]: 88 % of control
T/C [10]: 91 % of control

CCSCC1C=CC(n2cnc3c(N)ncnc32)O1 (stereo unspecified)
T/C [23]: 109 % of control
T/C [4]: 109 % of control
T/C [5]: 98 % of control
T/C [6]: 109 % of control

O=c1[nH]c2ccccc2cc1Br
T/C [20]: 96 % of control
T/C [21]: 96 % of control
T/C [22]: 105 % of control

Cn1c(=O)n(O)c(=O)c2ccccc21
T/C (dose: 50.0 mg/kg/injection, schedule: Q01DX001 (ip), vehicle: saline with Tween-80): 96 % of control
T/C (dose: 100.0 mg/kg/injection, schedule: Q01DX001 (ip), vehicle: saline with Tween-80): 109 % of control
T/C (dose: 200.0 mg/kg/injection, schedule: Q01DX001 (ip), vehicle: saline with Tween-80): 91 % of control
